According to ChEMBL document CHEMBL1201862, “PubChem BioAssay data set” (2004):
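The compound was tested at five concentrations on cells cultured in 96-well plates, with a 48-hour exposure period. Here, GI50 denotes the concentration required for 50% inhibition of growth.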 The source made the active and inactive calls. No stated cut-off is given here; in the data, active = GI50 up to about 1.1 µM and inactive = higher.

What was measured:
Experiment in all cases: growth of human tumour cells (NCI), 48 h
[1] = system: HCT-15
[2] = system: SW-620
[3] = system: Malme-3M
[4] = system: NCI-H23
[5] = system: SF-295
[6] = system: EKVX
[7] = system: KM12
[8] = system: UACC-62
[9] = system: RXF 393
[10] = system: SK-MEL-5
[11] = system: ACHN
[12] = system: A498
[13] = system: UO-31
[14] = system: CAKI-1
[15] = system: MOLT-4
[16] = system: NCI-H226
[17] = system: HCT-116

Row | Structure (SMILES) | GI50 [1] [µM] | GI50 [2] | GI50 [3] | GI50 [4] | GI50 [5] | GI50 [6] | GI50 [7] | GI50 [8] | GI50 [9] | GI50 [10] | GI50 [11] | GI50 [12] | GI50 [13] | GI50 [14] | GI50 [15] | GI50 [16] | GI50 [17]
1 | C[P+]1(c2ccccc2)CCCCC1 | > 100 | > 100 µM (inactive) | > 100 µM (inactive) | > 100 µM (inactive) | > 100 µM (inactive) | > 100 µM (inactive) | > 100 µM (inactive) | > 100 µM (inactive) | > 100 µM (inactive) | > 100 µM (inactive) | > 100 µM (inactive) | > 100 µM (inactive) | > 100 µM (inactive) | > 100 µM (inactive) | > 100 µM (inactive) | – | –
2 | Cl[Si]1(Cl)Oc2ccccc2O[Si](Cl)(Cl)Oc2ccccc2O1 | 21 | 15 µM (inactive) | 18.7 µM (inactive) | 14.8 µM (inactive) | 31.3 µM (inactive) | 31 µM (inactive) | 34.3 µM (inactive) | 5.08 µM (inactive) | – | 12.4 µM (inactive) | 15.8 µM (inactive) | 36.2 µM (inactive) | – | 28.4 µM (inactive) | 3.25 µM (inactive) | 38.5 µM (inactive) | 33.2 µM (inactive)
3 | C=CCC1[C@@H](C(C)(C)C(C(C)=O)C(=O)C(=O)OC)OC(C(C)(C)C)N1C(=O)OC (some centres not stated) | > 100 | – | > 100 µM (inactive) | > 100 µM (inactive) | > 100 µM (inactive) | > 100 µM (inactive) | > 100 µM (inactive) | > 100 µM (inactive) | > 100 µM (inactive) | > 100 µM (inactive) | > 100 µM (inactive) | > 100 µM (inactive) | > 100 µM (inactive) | – | 24.6 µM (inactive) | 52.6 µM (inactive) | 47.4 µM (inactive)
4 | CN(/N=C/c1cccc2cccnc12)c1ccc([N+](=O)[O-])cc1 | > 100 | > 100 µM (inactive) | > 100 µM (inactive) | > 100 µM (inactive) | > 100 µM (inactive) | > 100 µM (inactive) | > 100 µM (inactive) | > 100 µM (inactive) | > 100 µM (inactive) | > 100 µM (inactive) | > 100 µM (inactive) | > 100 µM (inactive) | – | > 100 µM (inactive) | > 100 µM (inactive) | > 100 µM (inactive) | > 100 µM (inactive)
5 | CC(C)N(C(=O)C12C3C4C5(C#N)C3C1(C#N)C5C42C#N)C(C)C (configuration not stated) | – | > 100 µM (inactive) | > 100 µM (inactive) | > 100 µM (inactive) | > 100 µM (inactive) | > 100 µM (inactive) | > 100 µM (inactive) | > 100 µM (inactive) | – | > 100 µM (inactive) | > 100 µM (inactive) | > 100 µM (inactive) | > 100 µM (inactive) | – | > 100 µM (inactive) | > 100 µM (inactive) | > 100 µM (inactive)
6 | c1ccc2c(c1)N=C(c1ccc3ccccc3c1)CC(c1cccc3ccccc13)S2 (configuration not stated) | 21.3 | 32.8 µM (inactive) | > 100 µM (inactive) | 25.7 µM (inactive) | 47.1 µM (inactive) | 61.4 µM (inactive) | 18.9 µM (inactive) | 21 µM (inactive) | 40.4 µM (inactive) | 38.5 µM (inactive) | 38.5 µM (inactive) | 27.5 µM (inactive) | 59.7 µM (inactive) | 55.8 µM (inactive) | 11.4 µM (inactive) | 45.4 µM (inactive) | –
7 | C=CCCC12CCCC(=O)C1Sc1ccc3ccccc3c12 (configuration not stated) | 11.1 | 15.9 µM (inactive) | 16.4 µM (inactive) | 19.7 µM (inactive) | 19.4 µM (inactive) | 21.6 µM (inactive) | 7.38 µM (inactive) | 11.9 µM (inactive) | 12.2 µM (inactive) | > 10 µM (inactive) | 24.8 µM (inactive) | 13.1 µM (inactive) | 16.8 µM (inactive) | 9.04 µM (inactive) | 13.2 µM (inactive) | 14.1 µM (inactive) | –
